# Laboratory results from patent US20240391889A1, “ANTIMICROBIAL COMPOUNDS AND THE METHODS OF USE” (priority 2021, published 2024).
# Like-named read-outs stand apart in the source and are kept apart here. Numbered stars: 1 amine (or outer) side, 2 acyl side, 3 side chain; on linkers, the order of the positions; unused ones are H or OH. Square brackets hold non-standard residues; d marks the D form. Peptide text beside a SMILES is read from it. N(tridecyl)Gly = CCCCCCCCCCCCCNCC(=O)O; X1 = CC(c1ccccc1)N(CC(=O)[*:2])[*:1]; NFurfurylGly = O=C(O)CNCc1ccco1; Gly(N(CH2)3NH2) = NCCCNCC(=O)O; Nphe = O=C(O)CNCc1ccccc1; NPrGly = CCCNCC(=O)O; Nlys = NCCCCNCC(=O)O
# Key:
# C. albicans = format: cell-based, Candida albicans
# Description: One of the most serious crises facing both new and existing antimicrobial compounds is the rapid development of resistance by pathogens to that compound, rendering it useless. This has been an issue observed with all major commercially available antimicrobial drugs and is an increasingly prevalent issue with antifungal drugs (Clatworthy et al., Nat. Chem. Biol. 3, 541-548 (2007); Wiederhold et al., Infect. Drug Resist. 10, 249-259 (2017)). The ability of C. albicans to gain resistance against RMG9-11 was evaluated using two techniques; serial and single passage. Ching et al. described a method for single passage assessment of gain of resistance, which was used here with RMG9-11 (Ching et al., Sci. Rep. 10, 8754 (2020)). Briefly, a single colony of C. albicans was incubated overnight in RPMI-MOPS. Fungal cultures were then incubated for either 24 or 48 hours with concentrations of RMG9-11 ranging from 0 to 80% MIC. […]
# Gain of resistance to RMG9-11 by C. albicans was determined using a serial passage assay following previously published methods.43 Single colonies of C. albicans from a frozen stock streak plate were added to a saline solution (0.85%) to achieve an OD530=0.15-0.25. […]
# [1] = system: human keratinocyte (HaCat) cells; experiment: in vitro; format: cell-based
# Method: (§1) The mammalian cell lines that were tested (HepG2, 3T3, and HaCat) were incubated with RMG9-11 for 72 hours and cell viability was determined via mitochondrial activity using an MTT reduction assay where viable cells reduce MTT to formazan. Toxicity is reported as the concentration of the peptoid that results in a 50% reduction in viable cells, termed toxicity dose 50% or TD50. […] SR is defined as the TD50 divided by MIC and provides a measure of the therapeutic window for a compound. Typically for most lead compounds that would continue through development and optimization, a SR of 10 is preferred while an SR of 100 is more desirable for a compound moving into preclinical animal model evaluation.
# (§2) Hepatocellular carcinoma (HepG2), mouse fibroblast (3T3), and human keratinocyte (HaCat) cells were cultured in Dulbeco modified eagle media (DMEM) containing 10% fetal bovine serum (FBS) and 1% penicillin, streptomycin, and glutamine (PSG) at 37° C. and 5% CO2. Cells were collected and adjusted to […] to 4×10^5 cells/mL in phenol-red free DMEM and plated (100 μL) 96 well plates. 2-fold serial dilutions of 10× peptoid (11.1 μL) were added to each well in triplicate. Water (vehicle) was used as a negative control. Plates were incubated at 37° C. in 5% CO2 for 72 hours. Thiazolyl blue tetrazolium bromide (MTT) was added to each well (5 mg/mL; 20 μL) and incubated for 3 hours. Media was removed, DMSO (100 μL) was added, and plates were incubated at 37° C. for 10 minutes. Plates were read on a SPECTRAMAX M5 plate reader (Abs. 570 nm). The concentration of compound resulting in a 50% reduction in growth compared to control (toxicity dose 50%; TD50) was determined using GRAFIT. This procedure was repeated three times on separate days.
# HepG2 liver cells = experiment: in vitro; format: cell-based
# Method: as §1, §2
# [2] = system: mouse fibroblast (3T3) cells; experiment: in vitro; format: cell-based
# Method: as §1, §2
# in vitro = format: cell-based, human
# Method: as §1, §2
# Mycobacterium smegmatis = experiment: MIC assay, M. smegmatis (72 h); format: cell-based
# Method: The minimum inhibitory concentration (MIC) of peptoids against the ESKAPE bacteria (Enterococcus faecium ATCC 6569; Staphylococcus aureus ATCC 29213; Klebsiella pneumoniae ATCC 13883; Acinetobacter baumanii ATCC 19606; Pseudomonas aeruginosa ATCC 25619; Enterococcus faecalis ATCC 29212; and Escherichia coli ATCC 25922) was determined following CLSI guidelines (CLSI. Methods for Dilution Antimicrobial Susceptibility Tests for Bacteria That Grow Aerobically, 11th Edition. Clinical and Laboratory Standards Institute, 2018). The MIC against Mycobacterium smegmatis was also determined following CLSI guidelines (Woods, G. L. et al. Susceptibility Testing of Mycobacteria, Nocardiae, and Other Aerobic Actinomycetes, 2nd edition. (2011)). Colonies picked from streaked tryptic soy agar plates were added to tryptic soy broth (TSB) to achieve a turbidity of OD600=0.08-0.15. Inoculant was diluted 1:200 into cation adjust Mueller Hinton Broth (CAMHB) and 90 μL was plated into each well of a 96 well black-wall plate. […] Following incubation for the ESKAPE bacteria, PRESTO BLUE (10 μL) was added to each well and incubated at 37° C. for one hour before measuring fluorescence on a SPECTRAMAX M5 plate reader (Ex. 555 nm; Em. 585 nm). Following incubation for M. smegmatis, wells were scored following CLSI guidelines to determine MIC. […]
# [3] = system: single donor human red blood cells (hRBC)
# C. glabrata = format: cell-based, Candida glabrata
smiles,measurement,setting,value
CCCCCCCCCCCCCNCC(=O)N(CCC)CC(=O)N(CC(=O)N(CCCCN)CC(=O)N(CC(=O)N(CC(=O)N(CCCN)CC(N)=O)Cc1ccccc1)Cc1ccco1)C(C)c1ccccc1 (stereo not shown) [RMG9-11] (H-[N(tridecyl)Gly][NPrGly][X1][Nlys][NFurfurylGly][Nphe][Gly(N(CH2)3NH2)]-NH2),Serial Passage MIC,C. albicans; Treated: serial passage with 1 to 25% MIC RMG9-11,6.25 µg/mL
same,Serial Passage MIC,C. albicans; Untreated C. albicans,6.25 µg/mL
same,TD50 HaCat,[1],53 µg/mL
same,"toxicity at the MIC, HaCat",[1],minimal
same,"toxicity at the MIC against C. albicans, HepG2",HepG2 liver cells,no toxicity
same,TD50 3T3,[2],39 µg/mL
same,"toxicity at the MIC, 3T3",[2],minimal
same,CC50 at 72 h,"in vitro; human, HaCat human keratinocyte cells",53 ± 5 µg/mL
same,CC50 at 72 h,"in vitro; human, HepG2 hepatocellular carcinoma cells",114 ± 5 µg/mL
same,CC50 at 72 h,"in vitro; mouse, 3T3 mouse fibroblast cells",39 ± 2 µg/mL
same,MIC M. smegmatis,Mycobacterium smegmatis,6.25 µg/mL
same,HC10 hRBC,[3],29 µg/mL
same,MIC C. glabrata,C. glabrata,6.25 µg/mL
